Assays:
PBMC = assay: Staining with Trypan Blue of PBMC treated with dendriplexes or dendrimers; details: 72 hours, (+/−)=2/1, IM8 3.93 μM, IM16 1.99 μM, ClNH4 3.98 μM, Phe 1.96 μM, NN 3.94 μM, SF 0.68 μM, G4 100 μM, PPT 0.88 μM (0.34 μM with SF, 1 μM with G4), n = 100 cells per count
[1] = test system: peripheral blood mononuclear cells (PBMC); assay: Mitochondrial activity: MTT on PBMC; assay type: cell-based, human; details: for Cell viability after incubation with dendrimers according to MTT: 48 hours, relative to untreated control; for mitochondrial viability (comparison among dendrimers): increasing concentrations of CBS or SF
Experimental: The toxicity of dendrimers IM8, IM16, ClNH4, NN, Phe and the commercial controls SF (Superfect) and G4 were tested. Different quantities were taken of each one of them so that the final concentrations with which the cells were incubated were 1 μM, 5 μM, 10 μM, 20 μM and 100 μM.
The blood came from adult donors or the umbilical cord of health newborns. Said blood was diluted ½ with PBS and it was centrifuged in a Ficoll gradient. After said centrifugation, the PBMC halo was recovered and two subsequent washing-centrifuging cycles were carried out. The resulting PBMC were resuspended in complete culture medium with 10% FCS, antibiotics and glutamine.
100 μl of 10% complete medium of foetal calf serum, antibiotics and glutamine were added to a volume of 60 μl of RPMI with the corresponding dendrimer tested. 160 μl were then added to the cells seeded in 340 μl, completing a final volume of 500 μl. The cells were incubated in this way for 48 hours and then the effect of the incubation with the dendrimers was evaluated by its visual examination and by the evaluation of the mitochondrial activity.
A curve of mitochondrial activity was performed of the dendrimer concentration after 48 hours. […] It is a […] test based on the selective capacity of the cells viable for reducing 3-(4,5-dimethylthiazol-2-il)-2,5-diphenyl tetrazolium bromide in insoluble formazan crystals. After 48 hours of incubation of the PBMC with different concentrations of dendrimers in a 96-well plate (100,000/well), the supernatant which contained dendrimer was removed and it was replaced by 200 μl of a culture medium without serum or red phenol (Optimem). To avoid the loss of cells in this step and subsequently of formazan, a modification had been made of the protocol, seeding the PBMC in total human plasma fibronectin (Sigma®) at a concentration of 5-10 μg/ml, so that during the 4-hour incubation they fixed to the bottom of the well. In addition to the 200 μl of Optimem, 20 μl of filtered MTT were added to achieve its sterility (Thiazolyl Blue, Sigma®) in PBS pH 7.4 at a concentration of 5 mg/ml to achieve a final concentration per well of 0.5 mg MTT/ml. After 4 hours of incubation at 37° C. with 5% CO2 atmosphere, the plate was centrifuged at 2000 rpm and the supernatant with the excess MTT that had not reacted was subsequently removed. The formazan crystals were observed under a phase contrast microscope and later dissolved with 200 μl of dimethyl sulfoxide (DMSO). The plate was stirred at 700 rpm in an Eppendorf® stirrer-heater to ensure the correct dissolution of said crystals. The concentration of formazan ([A]) was determined by spectrometry using a plate reader at a wavelength of 570 nm with a reference of 690 nm. The spectrophotometry was calibrated to zero using Optimem without cells. The relative cell viability (%) with respect to the control (untreated cells), based on mitochondrial activity, was calculated based on this formula: [A] test/[A] control×100. Each dendrimer concentration was tested in triplicate, following the guidelines of the ATCC.

ODN PPT = assay: Stability of the dendriplexes in aqueous solution in accordance with time; assay type: physicochemical; details: after 24 hours
Experimental: Different samples of dendriplexes were prepared in aqueous solution formed between the ODN PPT and dendrimers IM8, IM16 and NN at a 2/1 charge ratio according to Example 31 and electrophoresis was performed after different times since the preparation of the samples, specifically 0 hours, 6 hours and 24 hours. During those times, the dendriplexes were maintained in conditions which imitate the physiological conditions: 37° C., in 5% CO2 atmosphere. The results are shown in FIG. 5, wherein the gel of FIG. 5a corresponds to the sample of 0 hours, that of FIG. 5b to the samples after 6 hours and that of FIG. 5c to the samples after 24 hours. In the three cases, a, b and c, the samples appear in the lanes following this order: […]

Row | Compound | TB+ (%), cells stained with Trypan Blue (PBMC) [%] | Cell viability after incubation with dendrimers according to MTT ([1]; 1 μM) [%] | Cell viability after incubation with dendrimers according to MTT ([1]; 5 μM) [%] | Cell viability after incubation with dendrimers according to MTT ([1]; 10 μM) [%] | Cell viability after incubation with dendrimers according to MTT ([1]; 20 μM) [%] | Cell viability after incubation with dendrimers according to MTT ([1]; 100 μM) [%] | ODN released from dendrimer (ODN PPT) [%] | mitochondrial viability (comparison among dendrimers) [1]
1 | C[Si](C)(CCCN)CCC[Si](C)(CCC[Si](C)(C)CCCN)CCC[Si](CCC[Si](C)(CCC[Si](C)(C)CCCN)CCC[Si](C)(C)CCCN)(CCC[Si](C)(CCC[Si](C)(C)CCCN)CCC[Si](C)(C)CCCN)CCC[Si](C)(CCC[Si](C)(C)CCCN)CCC[Si](C)(C)CCCN.Cl.Cl.Cl.Cl.Cl.Cl.Cl.Cl [ClNH4, 2G-[Si(CH2)3NH3^+Cl^−]8] | 15.7 | 65.5 | 47 | 40 | 16 | 14 | – | –
2 | C[N+](C)(C)CCO[Si](C)(C)CCC[Si](C)(CCC[Si](CCC[Si](C)(CCC[Si](C)(C)OCC[N+](C)(C)C)CCC[Si](C)(C)OCC[N+](C)(C)C)(CCC[Si](C)(CCC[Si](C)(C)OCC[N+](C)(C)C)CCC[Si](C)(C)OCC[N+](C)(C)C)CCC[Si](C)(CCC[Si](C)(C)OCC[N+](C)(C)C)CCC[Si](C)(C)OCC[N+](C)(C)C)CCC[Si](C)(C)OCC[N+](C)(C)C.[I-].[I-].[I-].[I-].[I-].[I-].[I-].[I-] [IM8, 2G-[Si(OCH2CH2NMe3^+I^−)]8] | 17.1 | 98 | 60 | 18 | 12 | 10 | ~100 | –
3 | C[N+](C)(C)CCO[Si](C)(CCC[Si](C)(CCC[Si](CCC[Si](C)(CCC[Si](C)(OCC[N+](C)(C)C)OCC[N+](C)(C)C)CCC[Si](C)(OCC[N+](C)(C)C)OCC[N+](C)(C)C)(CCC[Si](C)(CCC[Si](C)(OCC[N+](C)(C)C)OCC[N+](C)(C)C)CCC[Si](C)(OCC[N+](C)(C)C)OCC[N+](C)(C)C)CCC[Si](C)(CCC[Si](C)(OCC[N+](C)(C)C)OCC[N+](C)(C)C)CCC[Si](C)(OCC[N+](C)(C)C)OCC[N+](C)(C)C)CCC[Si](C)(OCC[N+](C)(C)C)OCC[N+](C)(C)C)OCC[N+](C)(C)C.[I-].[I-].[I-].[I-].[I-].[I-].[I-].[I-].[I-].[I-].[I-].[I-].[I-].[I-].[I-].[I-] [IM16, 2G-[Si(OCH2CH2NMe3^+I^−)2]8] | 18.5 | 94 | 99 | 63 | 37 | 11 | ~100 | greater mitochondrial viability
4 | CN(CCO[Si](C)(C)CCC[Si](C)(CCC[Si](CCC[Si](C)(CCC[Si](C)(C)OCCN(C)CC[N+](C)(C)C)CCC[Si](C)(C)OCCN(C)CC[N+](C)(C)C)(CCC[Si](C)(CCC[Si](C)(C)OCCN(C)CC[N+](C)(C)C)CCC[Si](C)(C)OCCN(C)CC[N+](C)(C)C)CCC[Si](C)(CCC[Si](C)(C)OCCN(C)CC[N+](C)(C)C)CCC[Si](C)(C)OCCN(C)CC[N+](C)(C)C)CCC[Si](C)(C)OCCN(C)CC[N+](C)(C)C)CC[N+](C)(C)C.[I-].[I-].[I-].[I-].[I-].[I-].[I-].[I-] [NN, 2G-[Si(O(CH2)2N(Me)(CH2)2NMe3^+I^−)]8] | 10.6 | 87 | 68 | 66 | 32 | 9 | ~100 | greater mitochondrial viability
5 | C[N+](C)(C)CCOc1cc(CO[Si](C)(C)CCC[Si](C)(CCC[Si](CCC[Si](C)(CCC[Si](C)(C)OCc2cc(OCC[N+](C)(C)C)cc(OCC[N+](C)(C)C)c2)CCC[Si](C)(C)OCc2cc(OCC[N+](C)(C)C)cc(OCC[N+](C)(C)C)c2)(CCC[Si](C)(CCC[Si](C)(C)OCc2cc(OCC[N+](C)(C)C)cc(OCC[N+](C)(C)C)c2)CCC[Si](C)(C)OCc2cc(OCC[N+](C)(C)C)cc(OCC[N+](C)(C)C)c2)CCC[Si](C)(CCC[Si](C)(C)OCc2cc(OCC[N+](C)(C)C)cc(OCC[N+](C)(C)C)c2)CCC[Si](C)(C)OCc2cc(OCC[N+](C)(C)C)cc(OCC[N+](C)(C)C)c2)CCC[Si](C)(C)OCc2cc(OCC[N+](C)(C)C)cc(OCC[N+](C)(C)C)c2)cc(OCC[N+](C)(C)C)c1.[I-].[I-].[I-].[I-].[I-].[I-].[I-].[I-].[I-].[I-].[I-].[I-].[I-].[I-].[I-].[I-] [Phe, 2G-[Si(OCH2—(C6H3)-3,5-(OCH2CH2NMe3^+I^−)2)]8] | 11.3 | 83 | 77 | 71 | 54 | 14 | – | greater mitochondrial viability

Source: patent US8603493B2, “Carbosilane dendrimers, preparation method thereof and use of same” (Dendrico, S.L., priority 2005, dated 2013)
